# Results taken from ChEMBL document CHEMBL4390652, “Design, biological evaluation and X-ray crystallography of nanomolar multifunctional ligands targeting simultaneously acetylcholinesterase and glycogen synthase kinase-3” (Eur J Med Chem, 2019).
# Experiments:
# [1] = test system: Epidermal growth factor receptor (Homo sapiens), P00533 [UNDEFINED MUTATION]; assay: Binding affinity to human partial length EGFR L747-T751del/Sins mutant expressed in bacterial expression system assessed as residual binding level at 10 uM by Kinomescan method relative to control
# [2] = biological target: Casein kinase I isoform gamma-1 (Homo sapiens) (UniProt Q9HCP0); assay: Binding affinity to wild-type human partial length CSNK1G1 (T15 to S353 residues) expressed in bacterial expression system assessed as residual binding level at 10 uM by Kinomescan method relative to control
# [3] = biological target: Serine/threonine-protein kinase TAO3 (Homo sapiens) (UniProt Q9H2K8); assay: Binding affinity to wild-type human partial length TAOK3 (M1 to T316 residues) expressed in mammalian expression system assessed as residual binding level at 10 uM by Kinomescan method relative to control
# [4] = biological target: Mitogen-activated protein kinase 1 (Homo sapiens) (UniProt P28482); assay: Binding affinity to wild-type human full length ERK2 (M1 to S360 residues) expressed in bacterial expression system assessed as residual binding level at 10 uM by Kinomescan method relative to control
# [5] = biological target: Serine/threonine-protein kinase DCLK1 (Homo sapiens) (UniProt O15075); assay: Binding affinity to wild-type human partial length DCAMKL1 (L270 to A662 residues) expressed in mammalian expression system assessed as residual binding level at 10 uM by Kinomescan method relative to control
# [6] = test system: Receptor-type tyrosine-protein kinase FLT3 (Homo sapiens), P36888 [K663Q]; assay: Binding affinity to human partial length FLT3 K663Q mutant (V592 to Y969 residues) expressed in bacterial expression system assessed as residual binding level at 10 uM by Kinomescan method relative to control
# [7] = biological target: Phosphatidylinositol 4,5-bisphosphate 3-kinase catalytic subunit gamma isoform (Homo sapiens) (UniProt P48736); assay: Binding affinity to wild-type human partial length PIK3CG (S144 to A1102 residues) expressed in mammalian expression system assessed as residual binding level at 10 uM by Kinomescan method relative to control
# [8] = biological target: Mitogen-activated protein kinase kinase kinase 19 (Homo sapiens) (UniProt Q56UN5); assay: Binding affinity to wild-type human partial length YSK4 (T1019 to H1328 residues) expressed in mammalian expression system assessed as residual binding level at 10 uM by Kinomescan method relative to control
# [9] = biological target: cGMP-dependent protein kinase 2 (Homo sapiens) (UniProt Q13237); assay: Binding affinity to wild-type human partial length PRKG2 (S422 to F762 residues) expressed in mammalian expression system assessed as residual binding level at 10 uM by Kinomescan method relative to control
# [10] = test system: Mast/stem cell growth factor receptor Kit (Homo sapiens), P10721 [A829P]; assay: Binding affinity to human partial length KIT A829P mutant (I571 to D952 residues) expressed in mammalian expression system assessed as residual binding level at 10 uM by Kinomescan method relative to control
# [11] = biological target: MAP/microtubule affinity-regulating kinase 4 (Homo sapiens) (UniProt Q96L34); assay: Binding affinity to wild-type human partial length MARK4 (K29 to G340 residues) expressed in bacterial expression system assessed as residual binding level at 10 uM by Kinomescan method relative to control
# [12] = biological target: Calcium/calmodulin-dependent protein kinase type IV (Homo sapiens) (UniProt Q16566); assay: Binding affinity to wild-type human partial length CAMK4 (A22 to A322 residues) expressed in bacterial expression system assessed as residual binding level at 10 uM by Kinomescan method relative to control
# [13] = biological target: Cyclin-dependent kinase 17 (Homo sapiens) (UniProt Q00537); assay: Binding affinity to wild-type human full length PCTK2 (M1 to F523 residues) expressed in bacterial expression system assessed as residual binding level at 10 uM by Kinomescan method relative to control
# [14] = biological target: Serine/threonine-protein kinase TNNI3K (Homo sapiens) (UniProt Q59H18); assay: Binding affinity to wild-type human full length TNNI3K (M1 to S835 residues) expressed in bacterial expression system assessed as residual binding level at 10 uM by Kinomescan method relative to control
# [15] = biological target: Myotonin-protein kinase (Homo sapiens) (UniProt Q09013); assay: Binding affinity to wild-type human partial length DMPK (V47 to V415 residues) expressed in bacterial expression system assessed as residual binding level at 10 uM by Kinomescan method relative to control
# [16] = biological target: Megakaryocyte-associated tyrosine-protein kinase (Homo sapiens) (UniProt P42679); assay: Binding affinity to wild-type human full length CTK (M43 to P508 residues) expressed in mammalian expression system assessed as residual binding level at 10 uM by Kinomescan method relative to control
# [17] = biological target: Cyclin-dependent kinase 2 (Homo sapiens) (UniProt P24941); assay: Binding affinity to wild-type human full length CDK2 (M1 to L298 residues) expressed in bacterial expression system assessed as residual binding level at 10 uM by Kinomescan method relative to control
# [18] = biological target: Dual specificity tyrosine-phosphorylation-regulated kinase 2 (Homo sapiens) (UniProt Q92630); assay: Binding affinity to wild-type human full length DYRK2 (M1 to S528 residues) expressed in mammalian expression system assessed as residual binding level at 10 uM by Kinomescan method relative to control
# [19] = biological target: Serine/threonine-protein kinase 38-like (Homo sapiens) (UniProt Q9Y2H1); assay: Binding affinity to wild-type human partial length NDR2 (N34 to E447 residues) expressed in bacterial expression system assessed as residual binding level at 10 uM by Kinomescan method relative to control
# [20] = biological target: Mitogen-activated protein kinase kinase kinase 15 (Homo sapiens) (UniProt Q6ZN16); assay: Binding affinity to wild-type human partial length MAP3K15 (T625 to L932 residues) expressed in mammalian expression system assessed as residual binding level at 10 uM by Kinomescan method relative to control
# [21] = biological target: Beta-adrenergic receptor kinase 1 (Homo sapiens) (UniProt P25098); assay: Binding affinity to wild-type human full length GRK2 (M1 to L689 residues) expressed in mammalian expression system assessed as residual binding level at 10 uM by Kinomescan method relative to control
# [22] = biological target: Tyrosine-protein kinase JAK2 (Homo sapiens) (UniProt O60674); assay: Binding affinity to wild-type human partial length JAK2 JH1 catalytic domain (A829 to G1132 residues) expressed in mammalian expression system assessed as residual binding level at 10 uM by Kinomescan method relative to control
# [23] = biological target: Serine/threonine-protein kinase PAK 4 (Homo sapiens) (UniProt O96013); assay: Binding affinity to wild-type human partial length PAK4 (Q144 to R438 residues) expressed in bacterial expression system assessed as residual binding level at 10 uM by Kinomescan method relative to control
# [24] = biological target: Serine/threonine-protein kinase Nek5 (Homo sapiens) (UniProt Q6P3R8); assay: Binding affinity to wild-type human partial length NEK5 (M1 to M279 residues) expressed in bacterial expression system assessed as residual binding level at 10 uM by Kinomescan method relative to control
# Sequence of Serine/threonine-protein kinase Nek5 (Homo sapiens) (Q6P3R8 whole entry, the tested form may be a part): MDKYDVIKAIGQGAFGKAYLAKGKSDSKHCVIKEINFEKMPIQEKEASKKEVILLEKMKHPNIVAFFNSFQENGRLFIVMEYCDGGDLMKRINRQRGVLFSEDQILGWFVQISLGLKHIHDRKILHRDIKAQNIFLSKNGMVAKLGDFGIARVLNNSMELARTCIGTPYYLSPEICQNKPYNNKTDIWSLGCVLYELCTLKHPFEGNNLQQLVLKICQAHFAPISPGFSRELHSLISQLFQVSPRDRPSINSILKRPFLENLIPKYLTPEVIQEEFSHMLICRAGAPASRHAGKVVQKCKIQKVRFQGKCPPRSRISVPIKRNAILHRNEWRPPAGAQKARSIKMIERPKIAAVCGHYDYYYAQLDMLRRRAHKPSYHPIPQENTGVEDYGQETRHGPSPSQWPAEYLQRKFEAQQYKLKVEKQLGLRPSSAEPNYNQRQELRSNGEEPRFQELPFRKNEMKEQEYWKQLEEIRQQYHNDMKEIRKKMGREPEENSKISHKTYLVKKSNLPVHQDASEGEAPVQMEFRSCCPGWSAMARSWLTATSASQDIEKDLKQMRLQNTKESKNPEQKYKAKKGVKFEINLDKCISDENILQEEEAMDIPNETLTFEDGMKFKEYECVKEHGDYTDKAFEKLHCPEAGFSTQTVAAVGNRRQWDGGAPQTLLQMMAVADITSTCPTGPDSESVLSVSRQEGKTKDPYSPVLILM
# Sequence of Dual specificity tyrosine-phosphorylation-regulated kinase 2 (Homo sapiens) (Q92630 whole entry, the tested form may be a part): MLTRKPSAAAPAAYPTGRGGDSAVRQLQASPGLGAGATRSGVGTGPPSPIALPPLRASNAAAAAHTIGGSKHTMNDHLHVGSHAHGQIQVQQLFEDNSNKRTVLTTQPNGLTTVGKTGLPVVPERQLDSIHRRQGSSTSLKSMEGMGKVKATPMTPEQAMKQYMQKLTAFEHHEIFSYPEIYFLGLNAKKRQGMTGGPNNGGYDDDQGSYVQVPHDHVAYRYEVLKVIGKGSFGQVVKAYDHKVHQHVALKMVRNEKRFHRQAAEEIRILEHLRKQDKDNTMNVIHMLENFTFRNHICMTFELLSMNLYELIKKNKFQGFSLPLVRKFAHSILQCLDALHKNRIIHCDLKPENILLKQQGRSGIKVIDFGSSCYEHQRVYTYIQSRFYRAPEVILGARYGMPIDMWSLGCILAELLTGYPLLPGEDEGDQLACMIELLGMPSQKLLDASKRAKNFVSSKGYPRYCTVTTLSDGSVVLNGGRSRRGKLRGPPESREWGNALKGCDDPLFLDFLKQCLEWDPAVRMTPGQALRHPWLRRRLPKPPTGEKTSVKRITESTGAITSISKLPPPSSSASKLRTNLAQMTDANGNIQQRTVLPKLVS
# Sequence of Mitogen-activated protein kinase kinase kinase 15 (Homo sapiens) (Q6ZN16 whole entry, the tested form may be a part): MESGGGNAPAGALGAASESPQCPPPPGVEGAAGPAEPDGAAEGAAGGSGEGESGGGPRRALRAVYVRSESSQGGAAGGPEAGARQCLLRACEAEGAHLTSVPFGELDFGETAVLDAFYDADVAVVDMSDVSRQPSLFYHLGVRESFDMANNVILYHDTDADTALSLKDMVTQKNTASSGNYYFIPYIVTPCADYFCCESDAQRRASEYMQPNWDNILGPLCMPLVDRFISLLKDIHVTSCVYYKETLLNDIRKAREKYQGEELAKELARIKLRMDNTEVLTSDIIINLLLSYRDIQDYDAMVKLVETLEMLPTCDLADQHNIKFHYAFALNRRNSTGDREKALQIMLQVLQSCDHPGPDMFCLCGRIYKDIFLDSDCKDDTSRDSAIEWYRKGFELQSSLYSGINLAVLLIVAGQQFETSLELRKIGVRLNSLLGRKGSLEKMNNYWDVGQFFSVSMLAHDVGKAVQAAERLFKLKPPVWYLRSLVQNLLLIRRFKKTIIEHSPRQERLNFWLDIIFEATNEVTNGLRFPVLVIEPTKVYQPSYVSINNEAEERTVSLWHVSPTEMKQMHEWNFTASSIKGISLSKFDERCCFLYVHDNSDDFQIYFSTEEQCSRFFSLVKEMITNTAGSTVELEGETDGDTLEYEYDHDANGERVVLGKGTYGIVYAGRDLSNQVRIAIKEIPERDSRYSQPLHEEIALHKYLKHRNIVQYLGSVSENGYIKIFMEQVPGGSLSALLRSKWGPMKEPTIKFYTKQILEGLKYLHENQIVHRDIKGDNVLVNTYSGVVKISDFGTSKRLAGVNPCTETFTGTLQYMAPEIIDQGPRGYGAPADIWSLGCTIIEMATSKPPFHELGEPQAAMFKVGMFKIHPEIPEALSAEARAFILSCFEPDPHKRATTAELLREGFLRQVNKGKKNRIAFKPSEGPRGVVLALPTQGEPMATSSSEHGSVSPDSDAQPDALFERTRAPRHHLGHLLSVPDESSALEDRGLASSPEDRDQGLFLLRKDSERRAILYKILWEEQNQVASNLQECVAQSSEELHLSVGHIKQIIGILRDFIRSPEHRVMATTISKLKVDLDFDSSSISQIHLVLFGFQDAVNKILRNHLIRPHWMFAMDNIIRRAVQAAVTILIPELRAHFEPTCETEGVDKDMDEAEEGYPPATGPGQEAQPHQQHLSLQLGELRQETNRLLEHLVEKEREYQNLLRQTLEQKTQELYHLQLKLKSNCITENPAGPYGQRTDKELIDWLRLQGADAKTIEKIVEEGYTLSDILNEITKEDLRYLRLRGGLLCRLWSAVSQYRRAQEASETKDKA
# Sequence of Serine/threonine-protein kinase DCLK1 (Homo sapiens) (O15075 whole entry, the tested form may be a part): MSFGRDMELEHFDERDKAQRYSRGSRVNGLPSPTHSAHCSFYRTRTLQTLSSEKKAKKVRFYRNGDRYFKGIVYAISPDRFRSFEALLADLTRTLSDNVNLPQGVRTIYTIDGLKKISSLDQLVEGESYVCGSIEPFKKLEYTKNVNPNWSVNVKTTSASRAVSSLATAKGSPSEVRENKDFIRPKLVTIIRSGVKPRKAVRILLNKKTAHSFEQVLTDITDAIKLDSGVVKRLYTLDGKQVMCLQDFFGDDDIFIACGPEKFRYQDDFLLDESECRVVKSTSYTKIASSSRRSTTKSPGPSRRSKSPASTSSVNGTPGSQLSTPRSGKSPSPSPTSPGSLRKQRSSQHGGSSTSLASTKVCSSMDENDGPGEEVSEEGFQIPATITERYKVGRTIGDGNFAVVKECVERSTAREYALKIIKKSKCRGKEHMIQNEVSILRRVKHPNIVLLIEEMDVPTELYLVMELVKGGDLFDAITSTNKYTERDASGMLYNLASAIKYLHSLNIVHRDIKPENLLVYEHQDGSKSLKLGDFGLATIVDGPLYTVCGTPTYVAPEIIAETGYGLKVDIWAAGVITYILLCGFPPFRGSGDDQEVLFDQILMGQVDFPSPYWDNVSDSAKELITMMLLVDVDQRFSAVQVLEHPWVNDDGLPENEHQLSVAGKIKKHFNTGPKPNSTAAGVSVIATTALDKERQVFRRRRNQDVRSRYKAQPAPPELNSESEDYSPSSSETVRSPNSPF
# Sequence of Calcium/calmodulin-dependent protein kinase type IV (Homo sapiens) (Q16566 whole entry, the tested form may be a part): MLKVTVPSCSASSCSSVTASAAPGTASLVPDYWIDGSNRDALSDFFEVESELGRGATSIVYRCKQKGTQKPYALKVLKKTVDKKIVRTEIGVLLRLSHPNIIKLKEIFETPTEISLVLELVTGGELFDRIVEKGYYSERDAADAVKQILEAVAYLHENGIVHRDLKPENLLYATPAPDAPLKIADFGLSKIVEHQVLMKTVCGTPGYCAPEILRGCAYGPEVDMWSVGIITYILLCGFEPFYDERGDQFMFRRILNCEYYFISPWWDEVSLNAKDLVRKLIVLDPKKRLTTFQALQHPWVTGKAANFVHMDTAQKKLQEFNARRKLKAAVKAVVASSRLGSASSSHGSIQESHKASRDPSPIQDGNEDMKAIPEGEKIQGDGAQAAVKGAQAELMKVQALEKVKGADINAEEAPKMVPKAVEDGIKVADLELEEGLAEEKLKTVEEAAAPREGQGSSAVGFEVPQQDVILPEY
# Sequence of Beta-adrenergic receptor kinase 1 (Homo sapiens) (P25098 whole entry, the tested form may be a part): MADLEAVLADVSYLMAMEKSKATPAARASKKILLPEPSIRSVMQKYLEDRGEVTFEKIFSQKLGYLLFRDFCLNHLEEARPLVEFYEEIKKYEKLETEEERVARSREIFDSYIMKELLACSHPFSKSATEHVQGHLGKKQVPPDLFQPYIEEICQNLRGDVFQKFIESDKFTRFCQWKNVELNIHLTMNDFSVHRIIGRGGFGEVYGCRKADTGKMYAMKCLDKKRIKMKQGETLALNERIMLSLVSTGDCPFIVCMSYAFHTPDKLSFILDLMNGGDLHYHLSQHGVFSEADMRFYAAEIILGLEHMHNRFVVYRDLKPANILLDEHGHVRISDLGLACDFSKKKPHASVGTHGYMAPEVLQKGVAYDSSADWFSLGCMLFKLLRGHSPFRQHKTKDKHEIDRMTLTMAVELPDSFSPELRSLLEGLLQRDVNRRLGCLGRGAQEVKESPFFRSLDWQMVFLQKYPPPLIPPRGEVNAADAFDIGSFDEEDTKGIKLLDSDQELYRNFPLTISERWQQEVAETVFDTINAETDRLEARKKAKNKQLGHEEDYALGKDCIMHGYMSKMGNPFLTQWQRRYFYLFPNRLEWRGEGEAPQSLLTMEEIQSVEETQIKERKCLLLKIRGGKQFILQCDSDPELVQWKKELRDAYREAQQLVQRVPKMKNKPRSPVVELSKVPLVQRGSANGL
# Sequence of Megakaryocyte-associated tyrosine-protein kinase (Homo sapiens) (P42679 whole entry, the tested form may be a part): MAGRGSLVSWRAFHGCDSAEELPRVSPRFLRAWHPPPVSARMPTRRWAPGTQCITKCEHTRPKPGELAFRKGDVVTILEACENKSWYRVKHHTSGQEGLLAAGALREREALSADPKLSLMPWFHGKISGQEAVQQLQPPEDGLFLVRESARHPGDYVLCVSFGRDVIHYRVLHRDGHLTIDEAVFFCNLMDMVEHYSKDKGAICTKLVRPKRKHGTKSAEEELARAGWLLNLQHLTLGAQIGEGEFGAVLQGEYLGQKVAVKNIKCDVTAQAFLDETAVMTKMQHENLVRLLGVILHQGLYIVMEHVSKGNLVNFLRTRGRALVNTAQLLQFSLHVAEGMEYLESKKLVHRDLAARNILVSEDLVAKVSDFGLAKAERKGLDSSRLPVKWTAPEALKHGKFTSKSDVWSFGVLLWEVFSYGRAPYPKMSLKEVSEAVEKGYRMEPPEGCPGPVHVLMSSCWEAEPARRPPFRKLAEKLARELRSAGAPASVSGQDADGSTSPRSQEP
compound,measurement,setting,value
O=C(Nc1cc(-c2cn(CCNc3c4c(nc5ccccc35)CCCC4)nn2)ccn1)Nc1cccc2c1C1CCCCN1C2=O (racemic),Activity,[1],75%
same,Activity,[2],63%
same,Activity,[3],3.8%
same,Activity,[4],94%
same,Activity,[5],82%
same,Activity,[6],0.8%
same,Activity,[7],100%
same,Activity,[8],8.5%
same,Activity,[9],4.4%
same,Activity,[10],3.9%
same,Activity,[11],35%
same,Activity,[12],100%
same,Activity,[13],4.2%
same,Activity,[14],100%
same,Activity,[15],18%
same,Activity,[16],100%
same,Activity,[17],74%
same,Activity,[18],53%
same,Activity,[19],99%
same,Activity,[20],100%
same,Activity,[21],100%
same,Activity,[22],21%
same,Activity,[23],14%
same,Activity,[24],82%
